# ChEMBL document CHEMBL5291721, “A preclinical secondary pharmacology resource illuminates target-adverse drug reaction associations of marketed drugs” (Nat Commun, 2023)
# Legend:
# [1] = molecular target: T1, Progesterone receptor (Homo sapiens, UniProt P06401)
# T1 sequence (P06401 whole entry): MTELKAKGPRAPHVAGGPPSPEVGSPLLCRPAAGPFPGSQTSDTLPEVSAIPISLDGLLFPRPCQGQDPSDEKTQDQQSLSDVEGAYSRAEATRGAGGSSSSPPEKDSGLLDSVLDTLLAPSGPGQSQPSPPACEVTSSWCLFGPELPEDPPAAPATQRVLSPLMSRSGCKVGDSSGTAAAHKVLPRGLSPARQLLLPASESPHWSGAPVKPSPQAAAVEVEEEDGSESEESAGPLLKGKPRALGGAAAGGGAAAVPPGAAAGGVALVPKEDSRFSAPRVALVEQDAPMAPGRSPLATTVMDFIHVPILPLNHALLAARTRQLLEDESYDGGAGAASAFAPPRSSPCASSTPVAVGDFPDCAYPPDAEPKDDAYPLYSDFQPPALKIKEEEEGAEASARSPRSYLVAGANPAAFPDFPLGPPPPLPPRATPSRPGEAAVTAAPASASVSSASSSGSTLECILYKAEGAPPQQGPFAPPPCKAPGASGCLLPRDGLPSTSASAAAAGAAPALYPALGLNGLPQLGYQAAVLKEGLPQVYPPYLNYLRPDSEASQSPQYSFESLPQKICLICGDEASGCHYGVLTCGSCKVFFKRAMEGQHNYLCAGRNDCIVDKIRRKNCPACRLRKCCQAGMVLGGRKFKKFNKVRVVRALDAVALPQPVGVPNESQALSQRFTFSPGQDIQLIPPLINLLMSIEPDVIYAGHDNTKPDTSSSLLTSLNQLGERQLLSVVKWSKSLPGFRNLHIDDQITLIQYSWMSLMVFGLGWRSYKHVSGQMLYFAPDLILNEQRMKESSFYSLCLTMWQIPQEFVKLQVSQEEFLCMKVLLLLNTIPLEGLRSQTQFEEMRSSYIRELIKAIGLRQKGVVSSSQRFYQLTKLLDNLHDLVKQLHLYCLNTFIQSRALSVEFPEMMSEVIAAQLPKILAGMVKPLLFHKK
# [2] = molecular target: T2, Adenosine receptor A1 (Homo sapiens, UniProt P30542)
# T2 sequence (P30542 whole entry): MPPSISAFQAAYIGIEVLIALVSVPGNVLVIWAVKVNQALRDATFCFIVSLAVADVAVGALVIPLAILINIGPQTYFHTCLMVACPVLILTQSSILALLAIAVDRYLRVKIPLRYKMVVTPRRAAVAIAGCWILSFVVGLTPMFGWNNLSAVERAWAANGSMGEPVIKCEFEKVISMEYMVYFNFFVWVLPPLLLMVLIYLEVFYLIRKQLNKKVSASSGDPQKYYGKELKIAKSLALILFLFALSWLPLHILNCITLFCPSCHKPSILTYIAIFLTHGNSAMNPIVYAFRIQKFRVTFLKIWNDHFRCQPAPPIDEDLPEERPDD
# [3] = molecular target: T3, Type-1 angiotensin II receptor (Homo sapiens, UniProt P30556)
# T3 sequence (P30556 whole entry): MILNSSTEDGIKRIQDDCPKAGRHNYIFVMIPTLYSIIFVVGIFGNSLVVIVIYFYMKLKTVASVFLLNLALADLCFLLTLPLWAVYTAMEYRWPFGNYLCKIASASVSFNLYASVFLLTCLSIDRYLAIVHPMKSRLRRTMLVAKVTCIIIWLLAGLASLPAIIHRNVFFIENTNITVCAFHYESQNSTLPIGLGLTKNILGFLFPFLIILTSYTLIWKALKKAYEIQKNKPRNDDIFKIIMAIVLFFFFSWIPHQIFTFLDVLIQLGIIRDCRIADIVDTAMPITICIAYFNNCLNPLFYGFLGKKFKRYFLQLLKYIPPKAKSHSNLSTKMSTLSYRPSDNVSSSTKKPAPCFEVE
# [4] = molecular target: Vasopressin V2 receptor (Homo sapiens, UniProt P30518)
# [5] = molecular target: Voltage-dependent L-type calcium channel subunit alpha-1C (Rattus norvegicus, UniProt P22002); assay type: functional
# [6] = molecular target: Cannabinoid receptor 1 (Homo sapiens, UniProt P21554); assay type: functional, cell-based
# [7] = molecular target: Gamma-aminobutyric acid receptor subunit alpha-1 (Rattus norvegicus, UniProt P62813); assay type: functional
# [8] = molecular target: T4, 5-hydroxytryptamine receptor 1A (Homo sapiens, UniProt P08908); assay type: functional, cell-based
# T4 sequence (P08908 whole entry): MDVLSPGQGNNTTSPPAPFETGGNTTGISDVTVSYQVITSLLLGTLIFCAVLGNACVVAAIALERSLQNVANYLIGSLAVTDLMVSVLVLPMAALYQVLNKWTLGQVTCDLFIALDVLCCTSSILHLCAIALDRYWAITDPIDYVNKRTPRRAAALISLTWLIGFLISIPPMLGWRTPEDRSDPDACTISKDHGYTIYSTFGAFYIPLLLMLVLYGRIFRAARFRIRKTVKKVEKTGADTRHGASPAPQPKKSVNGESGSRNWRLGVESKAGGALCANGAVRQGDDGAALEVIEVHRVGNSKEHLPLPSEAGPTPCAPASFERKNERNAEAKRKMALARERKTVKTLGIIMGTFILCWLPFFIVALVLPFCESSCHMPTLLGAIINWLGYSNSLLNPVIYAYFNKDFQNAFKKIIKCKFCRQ
# [9] = molecular target: T1, Progesterone receptor; assay type: functional
# [10] = molecular target: T1, Progesterone receptor; assay type: functional; remark: listed apart in the source
# [11] = molecular target: Sodium-dependent noradrenaline transporter (Homo sapiens, UniProt P23975)
# [12] = molecular target: Vasopressin V1a receptor (Homo sapiens, UniProt P37288)
# Also: assay procedure not described here.
# Sequence of Voltage-dependent L-type calcium channel subunit alpha-1C (P22002 whole entry): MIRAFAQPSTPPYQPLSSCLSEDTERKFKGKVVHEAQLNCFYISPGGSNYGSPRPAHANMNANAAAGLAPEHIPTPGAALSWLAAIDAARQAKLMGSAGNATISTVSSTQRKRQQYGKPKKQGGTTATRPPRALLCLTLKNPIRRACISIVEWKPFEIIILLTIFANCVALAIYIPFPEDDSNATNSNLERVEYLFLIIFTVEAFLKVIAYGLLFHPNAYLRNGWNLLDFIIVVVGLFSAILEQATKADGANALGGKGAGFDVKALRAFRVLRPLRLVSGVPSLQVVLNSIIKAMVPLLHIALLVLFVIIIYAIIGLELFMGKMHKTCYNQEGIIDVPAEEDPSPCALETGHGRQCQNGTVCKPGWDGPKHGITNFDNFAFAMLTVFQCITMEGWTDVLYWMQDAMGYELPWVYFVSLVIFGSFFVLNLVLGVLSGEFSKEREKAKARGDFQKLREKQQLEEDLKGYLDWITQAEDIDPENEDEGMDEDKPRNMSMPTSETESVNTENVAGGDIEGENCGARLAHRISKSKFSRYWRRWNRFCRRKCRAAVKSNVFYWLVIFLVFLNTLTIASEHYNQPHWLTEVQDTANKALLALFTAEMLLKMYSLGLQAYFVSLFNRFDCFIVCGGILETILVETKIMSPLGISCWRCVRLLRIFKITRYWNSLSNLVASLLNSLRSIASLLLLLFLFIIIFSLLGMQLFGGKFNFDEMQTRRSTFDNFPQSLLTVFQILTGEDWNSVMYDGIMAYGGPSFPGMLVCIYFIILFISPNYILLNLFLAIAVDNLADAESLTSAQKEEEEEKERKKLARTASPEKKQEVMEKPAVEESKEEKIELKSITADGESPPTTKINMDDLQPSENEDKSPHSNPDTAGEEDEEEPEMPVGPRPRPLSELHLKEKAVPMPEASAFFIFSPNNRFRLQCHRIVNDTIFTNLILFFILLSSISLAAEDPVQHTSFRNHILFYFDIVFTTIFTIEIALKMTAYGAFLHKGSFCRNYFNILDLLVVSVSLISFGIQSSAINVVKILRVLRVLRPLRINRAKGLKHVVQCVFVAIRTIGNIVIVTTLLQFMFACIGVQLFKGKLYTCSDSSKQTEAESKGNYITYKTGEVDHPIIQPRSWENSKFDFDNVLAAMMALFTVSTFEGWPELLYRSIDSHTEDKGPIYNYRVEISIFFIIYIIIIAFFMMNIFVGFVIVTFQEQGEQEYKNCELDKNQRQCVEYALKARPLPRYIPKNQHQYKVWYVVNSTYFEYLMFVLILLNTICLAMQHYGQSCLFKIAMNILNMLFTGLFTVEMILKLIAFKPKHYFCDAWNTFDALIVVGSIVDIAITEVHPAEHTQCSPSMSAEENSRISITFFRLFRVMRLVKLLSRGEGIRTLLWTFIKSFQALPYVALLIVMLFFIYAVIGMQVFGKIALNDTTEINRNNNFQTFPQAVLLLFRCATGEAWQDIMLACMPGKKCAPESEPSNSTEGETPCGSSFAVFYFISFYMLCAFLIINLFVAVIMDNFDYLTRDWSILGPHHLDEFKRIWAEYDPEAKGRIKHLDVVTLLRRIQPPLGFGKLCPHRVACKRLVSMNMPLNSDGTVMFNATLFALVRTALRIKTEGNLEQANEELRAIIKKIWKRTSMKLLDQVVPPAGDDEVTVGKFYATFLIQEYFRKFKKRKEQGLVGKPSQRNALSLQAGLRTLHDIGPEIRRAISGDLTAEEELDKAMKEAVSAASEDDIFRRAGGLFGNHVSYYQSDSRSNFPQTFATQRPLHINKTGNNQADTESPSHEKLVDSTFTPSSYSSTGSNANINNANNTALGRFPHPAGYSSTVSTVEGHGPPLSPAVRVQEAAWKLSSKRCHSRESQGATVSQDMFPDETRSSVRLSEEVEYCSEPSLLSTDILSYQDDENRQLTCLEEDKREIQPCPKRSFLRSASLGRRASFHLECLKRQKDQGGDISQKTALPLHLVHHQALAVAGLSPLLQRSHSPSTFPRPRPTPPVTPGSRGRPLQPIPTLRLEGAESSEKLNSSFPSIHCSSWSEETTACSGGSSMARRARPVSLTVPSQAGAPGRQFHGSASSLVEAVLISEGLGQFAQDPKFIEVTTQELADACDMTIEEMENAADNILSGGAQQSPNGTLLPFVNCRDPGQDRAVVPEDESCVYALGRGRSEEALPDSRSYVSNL
# Sequence of Vasopressin V2 receptor (P30518 whole entry): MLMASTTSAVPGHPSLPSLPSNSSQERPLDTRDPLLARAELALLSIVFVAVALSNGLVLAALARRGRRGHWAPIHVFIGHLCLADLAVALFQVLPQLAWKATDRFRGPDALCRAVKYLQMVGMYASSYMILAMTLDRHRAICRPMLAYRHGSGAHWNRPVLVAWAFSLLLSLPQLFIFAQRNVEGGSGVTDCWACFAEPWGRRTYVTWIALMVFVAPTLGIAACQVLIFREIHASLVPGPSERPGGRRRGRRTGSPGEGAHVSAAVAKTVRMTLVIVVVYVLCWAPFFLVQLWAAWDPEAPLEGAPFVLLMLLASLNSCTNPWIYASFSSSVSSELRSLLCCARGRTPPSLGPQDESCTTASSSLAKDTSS
# Sequence of Cannabinoid receptor 1 (P21554 whole entry): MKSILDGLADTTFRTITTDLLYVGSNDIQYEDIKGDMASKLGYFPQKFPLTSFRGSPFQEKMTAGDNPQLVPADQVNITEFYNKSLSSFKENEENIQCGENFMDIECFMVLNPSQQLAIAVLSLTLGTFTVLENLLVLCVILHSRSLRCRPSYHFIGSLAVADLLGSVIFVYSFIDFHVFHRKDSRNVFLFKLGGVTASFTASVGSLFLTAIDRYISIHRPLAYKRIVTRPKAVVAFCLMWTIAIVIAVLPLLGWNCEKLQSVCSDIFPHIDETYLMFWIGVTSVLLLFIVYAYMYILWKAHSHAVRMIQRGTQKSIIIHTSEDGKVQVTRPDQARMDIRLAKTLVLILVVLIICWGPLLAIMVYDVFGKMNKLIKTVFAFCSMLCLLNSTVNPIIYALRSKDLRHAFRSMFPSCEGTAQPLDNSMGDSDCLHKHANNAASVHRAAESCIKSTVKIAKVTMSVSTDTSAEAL
# Sequence of Vasopressin V1a receptor (P37288 whole entry): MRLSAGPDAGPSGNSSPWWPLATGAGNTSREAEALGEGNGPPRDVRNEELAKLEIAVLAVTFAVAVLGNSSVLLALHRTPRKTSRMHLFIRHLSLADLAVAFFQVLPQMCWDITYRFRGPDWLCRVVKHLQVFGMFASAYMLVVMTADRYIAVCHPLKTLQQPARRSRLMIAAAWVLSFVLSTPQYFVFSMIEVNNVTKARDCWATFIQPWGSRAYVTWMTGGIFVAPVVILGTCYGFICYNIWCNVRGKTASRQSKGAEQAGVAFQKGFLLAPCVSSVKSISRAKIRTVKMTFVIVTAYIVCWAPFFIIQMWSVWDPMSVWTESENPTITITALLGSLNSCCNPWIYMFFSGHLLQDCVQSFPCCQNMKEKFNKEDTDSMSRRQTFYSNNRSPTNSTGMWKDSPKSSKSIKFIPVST
# Sequence of Sodium-dependent noradrenaline transporter (P23975 whole entry): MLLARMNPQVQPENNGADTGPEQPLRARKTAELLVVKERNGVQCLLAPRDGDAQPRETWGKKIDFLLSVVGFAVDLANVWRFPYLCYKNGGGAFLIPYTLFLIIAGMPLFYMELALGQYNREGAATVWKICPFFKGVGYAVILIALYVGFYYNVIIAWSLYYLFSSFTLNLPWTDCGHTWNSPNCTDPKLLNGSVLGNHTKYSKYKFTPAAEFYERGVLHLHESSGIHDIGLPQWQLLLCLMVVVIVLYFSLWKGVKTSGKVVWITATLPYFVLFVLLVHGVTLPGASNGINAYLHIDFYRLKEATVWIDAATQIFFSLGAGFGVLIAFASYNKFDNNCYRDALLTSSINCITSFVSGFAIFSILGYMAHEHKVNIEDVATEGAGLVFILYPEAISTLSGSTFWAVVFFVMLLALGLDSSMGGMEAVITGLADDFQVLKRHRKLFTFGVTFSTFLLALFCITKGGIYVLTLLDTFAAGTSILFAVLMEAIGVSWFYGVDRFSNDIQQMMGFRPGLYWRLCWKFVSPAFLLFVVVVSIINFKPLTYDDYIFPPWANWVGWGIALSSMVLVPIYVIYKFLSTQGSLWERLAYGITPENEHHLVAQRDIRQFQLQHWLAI
# Sequence of Gamma-aminobutyric acid receptor subunit alpha-1 (P62813 whole entry): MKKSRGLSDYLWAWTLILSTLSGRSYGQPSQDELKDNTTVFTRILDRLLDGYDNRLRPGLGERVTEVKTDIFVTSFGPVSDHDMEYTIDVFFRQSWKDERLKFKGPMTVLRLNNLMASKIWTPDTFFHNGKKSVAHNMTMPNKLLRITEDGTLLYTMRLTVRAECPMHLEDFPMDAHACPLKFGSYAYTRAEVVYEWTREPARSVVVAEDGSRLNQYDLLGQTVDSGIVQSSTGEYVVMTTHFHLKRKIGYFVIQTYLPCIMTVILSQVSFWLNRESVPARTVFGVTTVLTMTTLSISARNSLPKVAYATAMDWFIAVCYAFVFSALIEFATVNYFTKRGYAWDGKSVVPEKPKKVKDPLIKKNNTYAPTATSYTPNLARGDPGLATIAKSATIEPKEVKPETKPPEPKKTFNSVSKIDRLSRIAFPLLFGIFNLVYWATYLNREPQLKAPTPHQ
Structure (SMILES),AC50 [1],AC50 [2],AC50 [3],AC50 [4],AC50 [5],AC50 [6],AC50 [7],AC50 [8],AC50 [9],AC50 [10],AC50 [11],AC50 [12]
Cc1cc2c(cc1S(N)(=O)=O)S(=O)(=O)CCC2,> 30 µM,,,,,,,,,,,
C[N+](C)(C)CCOP(=O)([O-])OC[C@H](O)CO,,> 30 µM,> 30 µM,> 30 µM,> 30 µM,> 30 µM,> 30 µM,> 30 µM,> 30 µM,> 30 µM,> 30 µM,
C[C@H](N[C@@H](CCc1ccccc1)C(=O)O)C(=O)N1Cc2ccccc2C[C@H]1C(=O)O,> 30 µM,,,,,,,,,,,
O=C(O)[C@@H]1C[C@@H](O)CN1,> 30 µM,,,,,,,,,,,
CC1(C)S[C@@H]2[C@H](/N=C/N3CCCCCC3)C(=O)N2[C@H]1C(=O)O [AMDINOCILLIN],> 30 µM,,,,,,,,,,,
CCC1(c2ccc(N)cc2)CCC(=O)NC1=O (stereo unspecified) [AMINOGLUTETHIMIDE],,> 30 µM,> 30 µM,> 30 µM,,> 30 µM,> 30 µM,,> 30 µM,> 30 µM,> 30 µM,
CC(=O)[C@]1(N)Cc2c(O)c3c(c(O)c2[C@@H](O[C@H]2C[C@H](O)[C@H](O)CO2)C1)C(=O)c1ccccc1C3=O [AMRUBICIN],> 30 µM,,,,,,,,,,,
NC(=O)[C@@H]1CC[C@@H]2CN1C(=O)N2OS(=O)(=O)O [AVIBACTAM],> 30 µM,,,,,,,,,,,
CC(=O)OC[C@H]1O[C@@H](n2ncc(=O)[nH]c2=O)[C@H](OC(C)=O)[C@@H]1OC(C)=O [AZARIBINE],> 30 µM,,,,,,,,,,,
CC(Cc1cccc(C(F)(F)F)c1)NCCOC(=O)c1ccccc1 (stereo unspecified) [BENFLUOREX],,> 30 µM,> 30 µM,> 30 µM,,> 30 µM,,,> 30 µM,> 30 µM,23 µM,> 30 µM
CCOC(=O)c1ccc(N)cc1 [BENZOCAINE],,> 10 µM,> 10 µM,> 10 µM,> 10 µM,,> 10 µM,> 10 µM,> 10 µM,> 10 µM,> 10 µM,
CC(C)(Oc1ccc(CCNC(=O)c2ccc(Cl)cc2)cc1)C(=O)O [BEZAFIBRATE],,> 10 µM,> 10 µM,> 10 µM,> 10 µM,> 30 µM,> 10 µM,> 30 µM,> 10 µM,> 10 µM,> 10 µM,> 10 µM
CC(C)(C)NC(=O)N[C@H](C(=O)N1C[C@H]2[C@@H]([C@H]1C(=O)NC(CC1CCC1)C(=O)C(N)=O)C2(C)C)C(C)(C)C (stereo partly specified) [BOCEPREVIR],> 30 µM,,,,,,,,,,,
C[C@H](CCC(=O)O)[C@H]1CC[C@H]2[C@@H]3[C@H](O)C[C@@H]4C[C@H](O)CC[C@]4(C)[C@H]3C[C@H](O)[C@]12C [CHOLIC ACID],> 30 µM,,,,,,,,,,,
Cc1ncc2c(c1O)COC2c1ccc(Cl)cc1 (stereo unspecified) [CICLETANINE],> 30 µM,,,,,,,,,,,
Cc1cn([C@H]2O[C@@H](CO)[C@H](O)[C@H]2F)c(=O)[nH]c1=O [CLEVUDINE],> 30 µM,,,,,,,,,,,
N#Cc1ccc(Oc2ccc3c(c2)COB3O)cc1 [CRISABOROLE],> 30 µM,,,,,,,,,,,
CC(=O)O[C@]1(C(C)=O)CC[C@H]2[C@@H]3C=C(Cl)C4=CC(=O)[C@@H]5C[C@@H]5[C@]4(C)[C@H]3CC[C@@]21C [CYPROTERONE ACETATE],,> 30 µM,> 30 µM,> 30 µM,> 10 µM,,> 10 µM,,,,> 30 µM,> 10 µM
CN[C@]1(c2ccccc2Cl)CCCCC1=O [ESKETAMINE],,> 30 µM,> 30 µM,> 30 µM,> 30 µM,,> 30 µM,,> 30 µM,> 30 µM,> 30 µM,> 30 µM
CC(=O)O[C@H]1Cc2ccccc2N(C(N)=O)c2ccccc21 [ESLICARBAZEPINE ACETATE],> 30 µM,,,,,,,,,,,
Cc1ccc(S(=O)(=O)NC(=O)NC2CCCCC2)cc1 [GLYCYCLAMIDE],> 30 µM,,,,,,,,,,,
CCOC(=O)C1=C(C)NC(C)=C(C(=O)OCC)C1c1ccccc1/C=C/C(=O)OC(C)(C)C [LACIDIPINE],,> 30 µM,> 30 µM,> 30 µM,0.32 µM,> 30 µM,> 30 µM,,> 30 µM,29 µM,> 30 µM,
CCC[C@@H]1C[C@@H](C(=O)N[C@@H]([C@H]2O[C@H](SC)[C@H](O)[C@@H](O)[C@H]2O)[C@@H](C)O)N(C)C1 [LINCOMYCIN],,> 10 µM,> 10 µM,> 10 µM,> 10 µM,> 30 µM,> 10 µM,> 10 µM,,,> 10 µM,> 10 µM
CN(Cc1cnc2nc(N)nc(N)c2n1)c1ccc(C(=O)N[C@@H](CCC(=O)O)C(=O)O)cc1 [METHOTREXATE],,> 30 µM,> 30 µM,> 30 µM,> 10 µM,> 30 µM,> 10 µM,> 10 µM,,,> 30 µM,> 30 µM
Cc1ccccc1N1C(=O)c2cc(S(N)(=O)=O)c(Cl)cc2NC1C (stereo unspecified) [METOLAZONE],,> 10 µM,> 10 µM,> 10 µM,> 10 µM,,> 10 µM,> 10 µM,> 10 µM,> 10 µM,> 10 µM,
O=C(O)c1cccnc1Nc1cccc(C(F)(F)F)c1 [NIFLUMIC ACID],,> 10 µM,> 10 µM,> 10 µM,> 10 µM,,> 10 µM,> 10 µM,> 10 µM,> 10 µM,> 10 µM,
O=C1c2ccccc2C(=O)C1c1ccccc1 [PHENINDIONE],,> 10 µM,> 10 µM,> 10 µM,> 10 µM,> 30 µM,> 10 µM,> 30 µM,> 10 µM,> 10 µM,> 10 µM,> 10 µM
CC(C)c1cccc(C(C)C)c1O [PROPOFOL],,> 30 µM,> 30 µM,,,> 30 µM,,> 30 µM,> 30 µM,> 30 µM,> 30 µM,
C[C@]12CCC(=O)C[C@@H]1CC[C@@H]1[C@@H]2CC[C@]2(C)[C@@H](O)CC[C@@H]12 [STANOLONE],,> 30 µM,> 30 µM,> 30 µM,> 30 µM,,> 30 µM,,0.0396 µM,,> 30 µM,
